# Laboratory results taken from BindingDB's records for doi:10.1021/jm970397q (Merck Research Laboratories, 1997).
# Counter-ions that a name gives are not always drawn.
# Biological target: Prothrombin (Homo sapiens, UniProt P00734)
# Assay: Inhibition of Thrombin
# Settings: read-out: kon (M-1-s-1)
row,Structure (SMILES),kon [M⁻¹ s⁻¹]
1,NC1CCC(CNC(=O)[C@@H]2CCCN2C(=O)CC(c2ccccc2)c2ccccn2)CC1 (stereo partly drawn) [(S)-1-(3-Phenyl-3-pyridin-2-yl-propionyl)-pyrrolidine-2-carboxylic acid (4-amino-cyclohexylmethyl)-amide; TFA],1.8e+08
2,"NC1CCC(CNC(=O)[C@@H]2CCCN2C(=O)CC2c3ccccc3C=Cc3ccccc32)CC1 (stereo partly drawn) [(S)-1-(2-5H-Dibenzo[a,d]cyclohepten-5-yl-acetyl)-pyrrolidine-2-carboxylic acid (4-amino-cyclohexylmethyl)-amide; hydrochloride]",1.8e+08
3,NC1CCC(CNC(=O)[C@@H]2CCCN2C(=O)CC(c2ccccc2)c2ccncc2)CC1 (stereo partly drawn) [(S)-1-(3-Phenyl-3-pyridin-4-yl-propionyl)-pyrrolidine-2-carboxylic acid (4-amino-cyclohexylmethyl)-amide; TFA],1.55e+08
4,NC1CCC(CNC(=O)[C@@H]2CCCN2C(=O)CC(c2ccccc2)c2cccnc2)CC1 (stereo partly drawn) [(S)-1-(3-Phenyl-3-pyridin-3-yl-propionyl)-pyrrolidine-2-carboxylic acid (4-amino-cyclohexylmethyl)-amide; TFA],2.1e+08
5,"NC1CCC(CNC(=O)[C@@H]2CCCN2C(=O)CC(C2CCCCC2)C2CCCCC2)CC1 (stereo partly drawn) [(S)-1-(3,3-Dicyclohexyl-propionyl)-pyrrolidine-2-carboxylic acid (4-amino-cyclohexylmethyl)-amide; hydrochloride]",2.3e+08
6,"NC1CCC(CNC(=O)[C@@H]2CCCN2C(=O)CC(c2ccccc2)c2ccccc2)CC1 (stereo partly drawn) [(S)-1-(3,3-Diphenyl-propionyl)-pyrrolidine-2-carboxylic acid (4-amino-cyclohexylmethyl)-amide; TFA]",2.1e+08
7,"NC1CCC(CNC(=O)[C@@H]2CCCN2C(=O)CC(c2cccnc2)c2ccc3c(c2)OCO3)CC1 (stereo partly drawn) [(S)-1-(3-Benzo[1,3]dioxol-5-yl-3-pyridin-3-yl-propionyl)-pyrrolidine-2-carboxylic acid (4-amino-cyclohexylmethyl)-amide; TFA]",2.51e+08
